The source of these data is ChEMBL document CHEMBL4145535, “Recent updates for designing CCR5 antagonists as anti-retroviral agents” (Eur J Med Chem, 2018).

Molecules are shown by their SMILES.

In test [1] the target is T1, C-C chemokine receptor type 5 (Homo sapiens, UniProt P51681). Put plainly: Displacement of [125I]-RANTES from CCR5 in mouse NIH/3T3 cells after 1 hr. A general note: Loss of bound radioactivity is the signal in a displacement assay; it reports binding, not function.
Target sequence in this assay (P51681 whole entry, looked up): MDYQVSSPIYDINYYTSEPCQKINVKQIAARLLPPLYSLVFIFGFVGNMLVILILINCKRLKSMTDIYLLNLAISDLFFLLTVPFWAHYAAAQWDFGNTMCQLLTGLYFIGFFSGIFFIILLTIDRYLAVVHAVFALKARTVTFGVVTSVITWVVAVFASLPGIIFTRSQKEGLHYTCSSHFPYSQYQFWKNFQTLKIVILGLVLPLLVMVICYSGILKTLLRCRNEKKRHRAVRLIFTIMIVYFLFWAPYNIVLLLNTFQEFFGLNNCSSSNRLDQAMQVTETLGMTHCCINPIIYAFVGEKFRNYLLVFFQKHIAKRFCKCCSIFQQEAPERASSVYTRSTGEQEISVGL
In test [2] the target is T1, C-C chemokine receptor type 5. Briefly: Antagonist activity at CCR5 (unknown origin) by HTS assay. The test is classed as functional.
Target sequence in this assay (P51681 whole entry): as the sequence (P51681 whole entry, looked up) above

Consider `C=CCN(C(=O)OCc1ccc([N+](=O)[O-])cc1)C1CCN(C[C@H]2CN(C(=O)C3CCCC3)C[C@]2(O)c2ccccc2)CC1` [NIFEVIROC], for which the IC50 (commonly the point on the concentration scale where inhibition reaches its midpoint) in test [1] was 2.9 nM.

In test [2], `C1NCC2CNCC12` (configuration not stated) returned an IC50 of 7 nM.
